Reference: patent US11819514B2, “Use of oligosaccharide riclinoctaose in preparation of drug for treating and/or preventing ischemia-reperfusion injury (IRI)” (Nanjing Southern Element Biotechnology Co., Ltd., priority 2021, dated 2023)
Entries after “also recorded” stand apart in the source; their conditions may differ.

Columns and labels:
male C57/BL6J mice [1] = assay: HIRI mouse model: histological analysis of liver (H&E); assay type: in vivo
Experimental: (§1) The experimental animals were male C57/BL6J mice aged 6 to 8 weeks and weighed 22 g to 26 g. The mice were housed under standard experimental conditions with a 12-hour light-12-hour dark cycle with free access to water and food. The mice were anesthetized with isoflurane, the abdomen was operated on, and the blood supply to middle and left lobes of the liver was blocked with non-invasive hemostatic clips, resulting in 70% hepatic ischemia; after 30 min of ischemia, the clips were removed, and samples were collected to measure biochemical parameters after reperfusion for 6 h.
The mice were administered by intraperitoneal injection and randomly divided into four groups; a first group was a sham-operation group (sham), the animals in the sham-operation group received the same laparotomy without vascular clip occlusion; a second group was a model group (IR); a third group was a low-dosage group (LRO), with 20 mg/mL of the oligosaccharide riclinoctaose injected intraperitoneally about 4 h to 6 h before surgery; and a fourth group was a high-dosage group (HRO), with 40 mg/mL of the oligosaccharide riclinoctaose injected intraperitoneally about 4 h to 6 h before surgery. The oligosaccharide riclinoctaose drug was dissolved in a 0.9% normal saline. […]

intestinal microflora = details: cited from earlier work
male C57/BL6J mice [2] = assay: CIRI (MCAO) mouse model: neurofunctional scoring (mNSS, Longa); assay type: in vivo
Excerpt: The experimental animals were male C57/BL6J mice aged 6 to 8 weeks and weighed 22 g to 26 g. Mice were anesthetized with isoflurane and placed on a supine heating pad. The skin was disinfected with iodine and 75% ethanol. A midline neck incision is made to expose the carotid artery […]. An external carotid artery (ECA) was isolated and occluded with two knots. An internal carotid artery (ICA) was isolated, and the MCA and ICA were clamped with microvascular clips. A small hole was cut in the ECA between the knot and a bifurcation point. A silicone rubber-coated, 30-mm-long, and 0.11-mm-diameter middle cerebral artery occlusion (MCAO) tether was introduced into the ICA. The artery was opened while sutures were inserted to block the blood vessel. A third knot on the ICA was closed and the suture was secured in a proper place. The mouse abdominal cavity was sutured, and the mice were placed in a heated cage for 30 min, and the wound was closed using small suture clips. The third knot was loosened, the filament was removed, and reperfusion was conducted for 24 h. The skin was closed and the mice were returned to individual cages.
The mice were administered by intraperitoneal injection and randomly divided into four groups; a first group was a sham-operation group (sham), the animals in the sham-operation group received the same neck incision without vascular suture blockage; a second group was a model group (IR); a third group was a low-dosage group (LRO), with 20 mg/mL of the oligosaccharide riclinoctaose injected intraperitoneally about 4 h to 6 h before surgery; and a fourth group was a high-dosage group (HRO), with 40 mg/mL of the oligosaccharide riclinoctaose injected intraperitoneally about 4 h to 6 h before surgery. The oligosaccharide riclinoctaose drug was dissolved in a 0.9% normal saline.
Neurofunctional scoring: the neurobehavioral functions were assessed using mNSS and Longa scores. The mNSS assessed neurological deficits through motor, reflex, sensory, and balance tests. Scores ranged from 0 (indicating no neurological deficit) to 18 (indicating the most severely-injured animal). The Longa score was determined as follows: 0 points, no neurological deficit; 1 point, the animals were unable to fully extend the contralateral forelimbs; 2 points, there was a tail scratching phenomenon when walking (circling to the opposite side); 3 points, a standing posture was unstable, falling to the opposite side; and 4 points, there was no spontaneous walking and loss of consciousness. A score of 0 to 2 was classified as mild nerve injury, while a score of 3 to 4 was classified as severe nerve injury.
(§2) Comparisons between multiple groups were statistically analyzed using a One-way ANOVA statistical method. P<0.05 was considered to have a significant effect.

male C57/BL6J mice [3] = assay: RIRI mouse model: histological analysis of kidney (H&E, PAS); assay type: in vivo; details: vs model group
Excerpt: (§3) The experimental animals were male C57/BL6J mice aged 6 to 8 weeks and weighed 22 g to 26 g; the mice were anesthetized with isoflurane, and the abdomen was operated on, and after the righting reflex disappeared, the mice were placed in a prone position on a mouse dissection table and fixed; under sterile conditions, the abdominal cavity was opened along a 1.5 cm longitudinal incision on both dorsal sides, the muscles were bluntly separated, and the renal pedicles on both sides were exposed; the blood flow was blocked with a non-invasive vascular clip, and the kidneys turned from red to dark purple, indicating successful ischemia. After 30 min of ischemia, the arterial clips were released, and the abdominal cavity was closed after the kidneys were restored to perfusion; after 24 h, samples were collected to measure biochemical indicators, and an RIRI model was established.
(§4) The mice were administered by intraperitoneal injection and randomly divided into four groups; a first group was a sham-operation group (sham), the animals in the sham-operation group received the same laparotomy without vascular clip occlusion; a second group was a model group (IR); a third group was a low-dosage group (LRO), with 20 mg/mL of the oligosaccharide riclinoctaose injected intraperitoneally about 4 h to 6 h before surgery; and a fourth group was a high-dosage group (HRO), with 40 mg/mL of the oligosaccharide riclinoctaose injected intraperitoneally about 4 h to 6 h before surgery. The oligosaccharide riclinoctaose drug was dissolved in a 0.9% normal saline.
Histomorphological changes in mouse kidneys were analyzed by H&E staining and PAS staining. The resected kidney tissue was immediately fixated with buffered 4% paraformaldehyde (in a PBS buffer) for histological analysis, embedded in paraffin, and sections were stained with by H&E or PAS. The necrosis and structural damages of nephrocytes were observed by a microscope.

male C57/BL6J mice [4] = assay: HIRI mouse model: serum enzyme activity assay (ALT, AST, LDH); assay type: in vivo; details: i.p. 20 mg/mL (LRO) and 40 mg/mL (HRO) 4 h to 6 h before surgery, 30 min ischemia, 6 h reperfusion, vs model group
Experimental: as §1, §4
Whole blood was collected, allowed to coagulate naturally at a room temperature, centrifuged at 2,000 r/min for 10 min, and a supernatant was collected for the determination of ALT, AST and LDH enzyme activities. The activities of AST, ALT and LDH were determined by an enzyme colorimetric quantitative analysis method, according to operation steps in kit instructions, and finally concentrations were determined by colorimetry at a wavelength of 505 nm or 440 nm.
as §2

[5] = cited from earlier work
male C57/BL6J mice [6] = assay: RIRI mouse model: plasma biochemical indicators (BUN, Creatinine, LDH); assay type: in vivo; details: i.p. 20 or 40 mg/mL 4 h to 6 h before surgery, 30 min ischemia, 24 h reperfusion
Excerpt: as §3, with “established. […]” for “established.”
Whole blood was collected, allowed to coagulate naturally at a room temperature, centrifuged at 2,000 r/min for 10 min, and a supernatant was collected for the determination of BUN, Creatinine, and LDH. The plasma BUN, Creatinine and LDH concentrations of mice in each group were analyzed according to instructions of the plasma BUN, Creatinine, and LDH detection kits, followed by operation steps in kit instructions, and finally concentrations were determined by colorimetry at a wavelength of 510 nm or 440 nm.
Comparisons between multiple groups were statistically analyzed using a One-way ANOVA statistical method. […]

[7] = i.p. injection before surgery, 30 min occlusion, 24 h reperfusion, vs model group

Substance: D-Glcp(4,6-pyr)-β-(1→3)-D-Glcp-β-(1→3)-D-Glcp-β-(1→6)-D-Glcp-β-(1→6)-D-Glcp-β-(1→4)-D-Glcp-β-(1→4)-D-Glcp-β-(1→3)-D-Galp [oligosaccharide riclinoctaose]
- necrotic area of liver parenchyma cells (H&E staining) (male C57/BL6J mice [1]; i.p. 20 and 40 mg/mL before surgery, 6 h reperfusion): reduction of a necrotic area of liver parenchyma cells
- liver tissue morphology / degree of damages (H&E staining) (male C57/BL6J mice [1]; treatment groups compared with sham-operation and model groups): the treatment groups and the sham-operation group have the closest tissue morphology, indicating a lesser degree of damages
- effect on intestinal microflora as a prebiotic (intestinal microflora): significantly improve the intestinal microflora
- neurobehaviour, low-dosage group (LRO) (male C57/BL6J mice [2]; 20 mg/mL i.p. 4 h to 6 h before surgery): cannot fully extend the contralateral forelimbs, the mice are not as severe as those in the model group
- neurobehaviour, high-dosage group (HRO) (male C57/BL6J mice [2]; 40 mg/mL i.p. 4 h to 6 h before surgery): behave similarly to those in the sham-operation group (sham) without neurological deficits
- neurological deficit by Longa score (male C57/BL6J mice [2]; [7]): the neurological deficit of mice can be significantly reduced
- neurological deficit by mNSS (male C57/BL6J mice [2]; [7]): the neurological deficit of mice can be significantly reduced
- area of cell necrosis in kidney (H&E staining) (male C57/BL6J mice [3]): the area of cell necrosis is reduced
- brush border shedding of renal tubule cells and degree of cell necrosis (PAS staining) (male C57/BL6J mice [3]): significantly reduced
- infiltration of inflammatory factors in kidney (H&E staining) (male C57/BL6J mice [3]): the infiltration of inflammatory factors is also reduced
- ALT activity in serum (male C57/BL6J mice [4]): decrease the AST, ALT and LDH values in a dosage-dependent manner; also recorded: significant reduction of ALT, AST, LDH activities in serum
- AST activity in serum (male C57/BL6J mice [4]): decrease the AST, ALT and LDH values in a dosage-dependent manner; also recorded: significant reduction of ALT, AST, LDH activities in serum
- LDH activity in serum (male C57/BL6J mice [4]): decrease the AST, ALT and LDH values in a dosage-dependent manner; also recorded: significant reduction of ALT, AST, LDH activities in serum
- water solubility [5]: desirable water solubility
- plasma BUN (male C57/BL6J mice [6]): significantly decreased
- plasma Creatinine (male C57/BL6J mice [6]): significantly decreased
- plasma LDH (male C57/BL6J mice [6]): significantly decreased
